What was measured:
Assay in all cases: relative viability (nuclei count vs DMSO), 5 days (fraction); higher = more cells survive
TGX 221 + Alpelisib = compound: CC1=CN2C(=O)C=C(N=C2C(=C1)C(C)NC3=CC=CC=C3)N4CCOCC4 [TGX 221] + Cc1nc(NC(=O)N2CCC[C@H]2C(N)=O)sc1-c1ccnc(C(C)(C)C(F)(F)F)c1 [Alpelisib] (partner 2 µM)
How it was run: (§1)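 Cells from lung cancer lines were seeded into 1536-well plates and, one day later, dosed by pin tool. Treatments were either a single drug or a fixed dose of an anchor drug with five library-drug doses (not always all listed) in √10 steps. After 5 days, nuclei were stained in a one-step fixation (final 0.05% Triton X-100, 1% formaldehyde, 1 ug/ml Hoechst) and counted on 4× images, and relative viability is the treated-to-vehicle nuclei ratio, as the median of duplicate plates.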

TGX 221 + Trametinib = compound: CC1=CN2C(=O)C=C(N=C2C(=C1)C(C)NC3=CC=CC=C3)N4CCOCC4 [TGX 221] + CC(=O)Nc1cccc(-n2c(=O)n(C3CC3)c(=O)c3c(Nc4ccc(I)cc4F)n(C)c(=O)c(C)c32)c1 [Trametinib] (partner 0.02 µM)
How it was run: as §1

[1] = compound: C1=CC=C(C(=C1)C2=CC=C(C=C2)C3=CSC4=C3C(=C(C(=O)N4)C#N)O)O + CC(=O)c1c(C)c2cnc(Nc3ccc(N4CCNCC4)cn3)nc2n(C2CCCC2)c1=O [Palbociclib] (partner 0.5 µM)
How it was run: as §1

[2] = compound: O=C(CCCCCCNC(=O)c1cnc(N(c2ccccc2)c2ccccc2)nc1)NO [Ricolinostat] + CCNC(=O)c1noc(-c2cc(C(C)C)c(O)cc2O)c1-c1ccc(CN2CCOCC2)cc1 [Luminespib] (partner 0.01 µM)
How it was run: as §1

Cell Line	relative viability (TGX 221 + Alpelisib; first compound 0.08 µM)	relative viability (TGX 221 + Alpelisib; first compound 0.253 µM)	relative viability (TGX 221 + Alpelisib; first compound 0.8 µM)	relative viability (TGX 221 + Alpelisib; first compound 2.53 µM)	relative viability (TGX 221 + Alpelisib; first compound 8 µM)	relative viability (TGX 221 + Trametinib; first compound 0.08 µM)	relative viability (TGX 221 + Trametinib; first compound 0.253 µM)	relative viability (TGX 221 + Trametinib; first compound 0.8 µM)	relative viability (TGX 221 + Trametinib; first compound 2.53 µM)	relative viability (TGX 221 + Trametinib; first compound 8 µM)	relative viability ([1]; first compound 0.08 µM)	relative viability ([1]; first compound 0.253 µM)	relative viability ([1]; first compound 0.8 µM)	relative viability ([1]; first compound 2.53 µM)	relative viability ([1]; first compound 8 µM)	relative viability ([2]; first compound 0.08 µM)	relative viability ([2]; first compound 0.253 µM)	relative viability ([2]; first compound 0.8 µM)	relative viability ([2]; first compound 2.53 µM)
NCI-H1355	0.711	0.67	0.673	0.584	0.54	0.448	0.396	0.406	0.359	0.302	0.445	0.413	0.437	0.412	0.378	0.645	0.764	0.753	0.712
NCI-H1395	0.935	1.16	0.89	0.514	0.584	0.93	0.935	0.831	0.767	0.761		0.706	0.593	0.611	0.657		0.792	0.859	0.528
NCI-H1437	0.892	0.851	0.889	0.66	0.487	0.462	0.448	0.437	0.38	0.415	0.277	0.361	0.324	0.326	0.27	0.984	1.08	1.12	0.92
NCI-H1651	0.83	0.742	0.77	0.716	0.498	0.809	0.84	0.756	0.764	0.73	0.506	0.491	0.483	0.518	0.48	0.712	0.891	0.852	0.914
NCI-H1666	0.855	0.742	0.735	0.645	0.654	0.726	0.797	0.852	0.884	0.742	0.63	0.669	0.637	0.641	1.02	0.969	1.04	0.976	0.836
NCI-H1734	0.619	0.509	0.562	0.448	0.448	0.678	0.602	0.71	0.66	0.688	0.324	0.295	0.261	0.33	0.377	0.197	0.19	0.185	0.178
NCI-H1755	0.876	0.706	0.651	0.49	0.437	0.792	0.743	0.646	0.647	0.628	0.447	0.482	0.418	0.42	0.48	0.489	0.528	0.442	0.752
NCI-H1793	0.611	0.503	0.482	0.446	0.406	0.462	0.374	0.398	0.357	0.306	0.255	0.422	0.316	0.285	0.261		0.15	0.171	0.145
NCI-H1915	1	0.999	1.08	1.1	1.01	0.283	0.29	0.29	0.274	0.238	0.587	0.558	0.554	0.756	0.515	0.71	0.79	0.784	0.669

From the supplement of paper PMC10307832
